According to US20200255438A1, “NOVEL SALTS” (priority 2017, published 2020):

How the values were obtained:
[1] = Aqueous solubility (equilibration in de-ionised water, HPLC); type: physicochemical; conditions: for Form retention of solids after solubility equilibration (XRPD): 24 hours in de-ionised water, solids dried at 50° C., re-analysed by XRPD; for solubility at 24 h: de-ionised water, water, thermodynamic from solid, 25° C.
Experimental: […] Solids were isolated by filtration to deliver clear liquors that were analyzed for API content by HPLC vs a known standard of free base (typical dilution of 50× using deionized water for salt candidates to deliver a working concentration in line with the standard at 0.5 mg/ml). The solids were dried at 50° C. and re-analysed by XRPD to confirm form retention—both mesylate and citrate retain form.

[2] = Solid form stability under extremes of humidity (XRPD post DVS/GVS); type: physicochemical; conditions: 0% RH and 90% RH, XRPD vs input
Text: FIG. 1: XRPD patterns of citrate salt (Example 1), Ex-DVS examination at 0% RH, (top panel), 90% RH, (middle panel) and input (bottom panel).
FIG. 3: XRPD data for mesylate salt (Example 2) exposed to extremes of humidity post GVS cycle: input (bottom panel) output 0% (top panel) output 90% (middle panel).
X-Ray Powder Diffraction (XRPD)
X-Ray Powder Diffraction patterns were collected on a PANalytical diffractometer using Cu Kα radiation (45 kV, 40 mA), θ−θ goniometer, focusing mirror, divergence slit (½″), soller slits at both incident and divergent beam (4 mm) and a PIXcel detector. The software used for data collection was X'Pert Data Collector, version 2.2f and the data was presented using X'Pert Data Viewer, version 1.2d.
XRPD patterns were acquired under ambient conditions via a transmission foil sample stage (polyimide—Kapton, 12.7 μm thickness film) under ambient conditions using a PANalytical X'Pert PRO. The data collection range was 2.994-35°2θ with a continuous scan speed of 0.202004°s^−1.

| SMILES | Form retention of solids after solubility equilibration (XRPD) [1] | solubility at 24 h [1] [mg/mL] | Crystalline form stability / hydrate formation under different extremes of humidity (XRPD) [2] |
| --- | --- | --- | --- |
| Cc1cc(-c2ccc(C(F)(F)F)cc2)nc([C@H]2CC[C@@]3(CCN(C)C3=O)N2)n1.O=C(O)CC(O)(CC(=O)O)C(=O)O [Example 1, (2R,5S)-7-Methyl-2-[4-methyl-6-[4-(trifluoromethyl)-phenyl]pyrimidin-2-yl]-1,7-diazaspiro[4.4]nonan-6-one citric acid (citrate) salt] | retain form | 22 | no tendency to form hydrates |
| CS(=O)(=O)O.Cc1cc(-c2ccc(C(F)(F)F)cc2)nc([C@H]2CC[C@@]3(CCN(C)C3=O)N2)n1 [Example 2, (2R,5S)-7-Methyl-2-[4-methyl-6-[4-(trifluoromethyl)-phenyl]pyrimidin-2-yl]-1,7-diazaspiro[4.4]nonan-6-one methanesulfonic acid (mesylate) salt] | retain form | 65 | no tendency to form hydrates |
